Data published in patent publication US11384075B2, “Quinolinone compounds” (Janssen Pharmaceutica NV, priority 2017, dated 2022).

Columns and labels:
[1] = target: T1, NIH/3T3 cells overexpressing FGFR3 WT-TACC3 fusion protein (Homo sapiens, UniProt P22607); experiment: NIH/3T3 FGFR3 WT-TACC3 cell proliferation assay; type: cell-based; conditions: 72-hr incubation, CellTiter Glo, starting with 10 μM; read-out: NIH/3T3 FGFR3 WT-TACC3 CTG (IC50)
T1 construct: NIH/3T3 FGFR3 WT-TACC3 CTG (IC50); other: 72-hr incubation, CellTiter Glo, starting with 10 μM; fused on or other part: Q9Y6A5 (Transforming acidic coiled-coil-containing protein 3)
Outline: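 Cells seeded overnight, then exposed 72 h at 37 °C to compound in 9-point 4-fold dilutions from 10 μM (0.1% DMSO final). Viability read by CellTiter-Glo luminescence, normalized to survival %; IC50, pIC50 and Hill slope from concentration-response fit.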

[2] = target: T2, human FGFR3 wild type enzyme (cytoplasmic domain) (Homo sapiens, UniProt P22607); experiment: FGFR3 wild type mobility shift assay (enzymatic assay); type: biochemical; conditions: 75 μM ATP, 50 minutes at 30° C., Caliper EZ reader II
T2 construct: human FGFR3 wild type enzyme (cytoplasmic domain, from Carna Biosciences); purchased Carna Biosciences
Outline: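 Cytoplasmic domain of human wild-type FGFR3 (0.04 ng/μL) with 75 μM ATP and 1 μM FL-peptide 30, pH 7.4 HEPES/MgCl2 buffer, 1% DMSO, 50 min at 30 °C, EDTA-stopped. Substrate-product conversion read by mobility shift. IC50, pIC50 and Hill slope from 10-point 4-fold dilutions starting at 10 μM.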

T1 sequence (P22607 whole entry, change not shown, the tested form may be a part): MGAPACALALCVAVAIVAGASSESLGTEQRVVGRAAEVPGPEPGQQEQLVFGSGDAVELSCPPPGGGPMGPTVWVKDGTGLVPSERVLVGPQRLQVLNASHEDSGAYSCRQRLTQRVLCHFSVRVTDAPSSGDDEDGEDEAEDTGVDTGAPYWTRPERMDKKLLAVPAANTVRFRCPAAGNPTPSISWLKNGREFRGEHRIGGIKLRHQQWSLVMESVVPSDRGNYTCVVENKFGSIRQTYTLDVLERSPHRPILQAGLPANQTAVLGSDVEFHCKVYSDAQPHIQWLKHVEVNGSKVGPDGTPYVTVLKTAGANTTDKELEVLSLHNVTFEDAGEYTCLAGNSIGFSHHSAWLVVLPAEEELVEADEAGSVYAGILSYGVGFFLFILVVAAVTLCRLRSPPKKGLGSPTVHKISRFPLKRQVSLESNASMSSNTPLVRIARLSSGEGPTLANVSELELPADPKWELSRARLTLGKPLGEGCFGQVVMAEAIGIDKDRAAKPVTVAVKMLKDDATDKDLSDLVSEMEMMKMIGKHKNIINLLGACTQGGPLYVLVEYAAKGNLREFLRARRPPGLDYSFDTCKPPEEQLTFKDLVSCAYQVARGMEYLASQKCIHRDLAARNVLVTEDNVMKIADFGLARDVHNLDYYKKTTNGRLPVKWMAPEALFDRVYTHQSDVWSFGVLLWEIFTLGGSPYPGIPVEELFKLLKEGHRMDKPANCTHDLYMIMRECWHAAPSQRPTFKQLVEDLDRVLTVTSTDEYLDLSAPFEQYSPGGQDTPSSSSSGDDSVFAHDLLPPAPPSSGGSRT
T2 sequence (P22607 397-806 limits assumed): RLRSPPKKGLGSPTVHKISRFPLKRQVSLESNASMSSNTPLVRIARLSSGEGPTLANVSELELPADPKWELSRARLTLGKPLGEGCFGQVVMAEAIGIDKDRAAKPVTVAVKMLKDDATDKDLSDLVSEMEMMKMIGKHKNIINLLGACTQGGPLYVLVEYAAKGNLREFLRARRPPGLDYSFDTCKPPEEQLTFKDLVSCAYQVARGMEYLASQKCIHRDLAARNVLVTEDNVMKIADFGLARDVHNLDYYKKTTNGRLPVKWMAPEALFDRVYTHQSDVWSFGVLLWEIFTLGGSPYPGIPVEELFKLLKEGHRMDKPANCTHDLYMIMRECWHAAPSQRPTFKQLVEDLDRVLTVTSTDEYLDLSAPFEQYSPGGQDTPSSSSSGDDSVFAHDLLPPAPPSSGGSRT

GI50 [1] [nM]	IC50 [2] [nM]	SMILES
25	5.04	C[C@@H]1CN(c2ccc3nc(-c4c(N[C@@H](C)c5ccccn5)c5ccccc5[nH]c4=O)[nH]c3c2)C[C@@H](C)O1 [Compound 21, 3-(6-((2R,6R)-2,6-dimethylmorpholino)-1H-benzo[d]imidazol-2-yl)-4-(((S)-1-(pyridin-2-yl)ethyl)amino)quinolin-2(1H)-one]
20.2	2.18	C[C@H](Nc1c(-c2nc3ccc(N4CCOCC4)c(F)c3[nH]2)c(=O)[nH]c2ccccc12)c1ccccn1 [Compound 24, (S)-3-(7-fluoro-6-morpholino-1H-benzo[d]imidazol-2-yl)-4-((1-(pyridin-2-yl)ethyl)-amino)quinolin-2(1H)-one]
24.8	2.59	C[C@@H]1CN(c2ccc3nc(-c4c(N[C@@H](C)c5ccccn5)c5ccccc5[nH]c4=O)[nH]c3c2)C[C@H](C)O1 [Compound 4, 3-(6-((2S,6R)-2,6-dimethylmorpholino)-1H-benzo[d]imidazol-2-yl)-4-(((S)-1-(pyridin-2-yl)ethyl)amino)quinolin-2(1H)-one]
3.61	0.337	C[C@H](Nc1c(-c2nc3ccc(N4CCOCC4)cc3[nH]2)c(=O)[nH]c2ccccc12)c1ncccn1 [Compound 2, (S)-3-(6-morpholino-1H-benzo[d]imidazol-2-yl)-4-((1-(pyrimidin-2-yl)ethyl)amino)-quinolin-2(1H)-one]
